According to patent US10774080B2, “Pyrimidine compound as JAK kinase inhibitor” (THERAVANCE BIOPHARMA R&D IP, LLC, priority 2017, dated 2020):

Experiments:
JAK2 = biological target: T1, JAK2 (Homo sapiens, UniProt O60674); assay: Biochemical JAK kinase assay (LanthaScreen), JAK2; conditions: converted from pIC50 by Cheng-Prusoff; ATP at Km 3 μM; read-out: JAK 2 (pKi) (converted)
T1 construct: GST; purchased Life Technologies
Procedure: Assay 1: Biochemical JAK and Tyk2 Kinase Assays A panel of four LanthaScreen JAK biochemical assays (JAK1, 2, 3 and Tyk2) were carried in a common kinase reaction buffer (50 mM HEPES, pH 7.5, 0.01% Brij-35, 10 mM MgCl2, and 1 mM EGTA). Recombinant GST-tagged JAK enzymes and a GFP-tagged STAT1 peptide substrate were obtained from Life Technologies. Serially or discretely diluted compounds were pre-incubated with each of the four JAK enzymes and the substrate in white 384-well microplates (Corning) at ambient temperature for 1 h. ATP was subsequently added to initiate the kinase reactions in 10 μL total volume, with 1% DMSO. […] The plates were allowed to incubate at ambient temperature for 1 h before being read on the EnVision reader (Perkin Elmer). Emission ratio signals (520 nm/495 nm) were recorded and utilized to calculate the percent inhibition values based on DMSO and background controls. For dose-response analysis, percent inhibition data were plotted vs. compound concentrations, and IC50 values were determined from a 4-parameter robust fit model with the Prism software (GraphPad Software). Results were expressed as pIC50 (negative logarithm of IC50) and subsequently converted to pKi (negative logarithm of dissociation constant, Ki) using the Cheng-Prusoff equation.

[1] = test system: IL-12 induced STAT4 phosphorylation in human CD3+ T cells; assay: Assay 12: inhibition of IL-12-induced STAT4 phosphorylation in human CD3+ T cells; assay type: cell-based; conditions: T-cell, read-out: pIC50 for inhibition of IL-12 induced STAT4 phosphorylation (converted)
Procedure: Assay 12: Inhibition of IL-12-Induced STAT4 Phosphorylation in Human CD3+ T Cells
This cellular potency assay for JAK inhibition was carried out by measuring interleukin-12 (IL-12, R&D Systems) induced STAT4 phosphorylation in human CD3^+ T cells. The CD3 antibody (Becton Dickinson (BD) Biosciences) was conjugated to R-Phycoerythrin (R-PE). The pSTAT4 antibody (pTyr641, BD Biosciences) was conjugated with Alexa Fluor 647.
Human peripheral blood mononuclear cells were cultured at 37° C. in a 5% CO2 humidified incubator in RPMI medium (Life Technologies) supplemented with 10% FBS (Life Technologies), 100 U/mL penicillin, 100 μg/mL streptomycin (Life Technologies), 2 mM GlutaMAX (Life Technologies), plate bound anti CD3 (5 μg/mL, UCHT1, BD Biosciences) and soluble anti-CD28 (1 μg/mL, CD28.2, BD Biosciences) for 3 days. Cells were then resuspended in RPMI medium (Life Technologies) supplemented with 10% FBS (Life Technologies), 100 U/mL penicillin, 100 μg/mL streptomycin (Life Technologies), 2 mM GlutaMAX (Life Technologies) and 10 ng/mL interleukin-2 (IL-2, R&D Systems) for an additional 3 days. […] For dose-response analysis, mean fluorescence intensity values were plotted vs. compound concentrations, and IC50 values were determined from a 4-parameter robust fit model with the Prism software.

T1 sequence (O60674 whole entry): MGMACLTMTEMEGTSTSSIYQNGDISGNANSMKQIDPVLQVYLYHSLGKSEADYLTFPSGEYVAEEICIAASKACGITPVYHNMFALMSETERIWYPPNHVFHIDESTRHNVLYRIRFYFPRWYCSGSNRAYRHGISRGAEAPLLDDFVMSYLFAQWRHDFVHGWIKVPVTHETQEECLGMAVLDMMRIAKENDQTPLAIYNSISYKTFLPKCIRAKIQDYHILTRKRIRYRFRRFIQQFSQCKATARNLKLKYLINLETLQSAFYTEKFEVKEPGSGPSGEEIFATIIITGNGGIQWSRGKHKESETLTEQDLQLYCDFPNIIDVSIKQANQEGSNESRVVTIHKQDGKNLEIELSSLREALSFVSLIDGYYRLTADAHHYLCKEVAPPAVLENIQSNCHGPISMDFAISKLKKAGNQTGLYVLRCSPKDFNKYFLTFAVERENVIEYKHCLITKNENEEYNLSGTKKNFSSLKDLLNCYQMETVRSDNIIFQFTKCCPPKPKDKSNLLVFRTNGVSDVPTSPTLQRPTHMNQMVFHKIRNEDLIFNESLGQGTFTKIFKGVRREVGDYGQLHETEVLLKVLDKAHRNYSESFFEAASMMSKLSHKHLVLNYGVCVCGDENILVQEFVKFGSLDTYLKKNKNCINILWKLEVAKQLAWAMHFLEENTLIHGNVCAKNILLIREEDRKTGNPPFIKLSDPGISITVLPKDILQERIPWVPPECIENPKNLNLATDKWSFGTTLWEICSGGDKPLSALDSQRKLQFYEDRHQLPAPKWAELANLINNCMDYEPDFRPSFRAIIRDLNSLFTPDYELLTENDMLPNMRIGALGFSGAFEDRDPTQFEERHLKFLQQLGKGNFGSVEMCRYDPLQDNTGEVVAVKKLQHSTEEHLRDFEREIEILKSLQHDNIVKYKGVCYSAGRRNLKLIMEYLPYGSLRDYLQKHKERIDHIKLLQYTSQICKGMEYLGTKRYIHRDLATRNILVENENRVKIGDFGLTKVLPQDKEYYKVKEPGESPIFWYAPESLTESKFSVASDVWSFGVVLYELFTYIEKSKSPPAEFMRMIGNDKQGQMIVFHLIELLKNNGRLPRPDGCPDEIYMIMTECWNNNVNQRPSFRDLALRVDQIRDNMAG

Question: CCS(=O)(=O)N1[C@@H]2CCC[C@H]1C[C@H](N(C)c1nc(CO)c(F)c(Nc3cc(C)[nH]n3)n1)C2 [Compound (I), (2-(((1R,3s,5S)-9-(ethylsulfonyl)-9-azabicyclo[3.3.1]nonan-3-yl)(methyl)amino)-5-fluoro-6-((5-methyl-1H-pyrazol-3-yl)amino)pyrimidin-4-yl)methanol] was tested. Which Ki (JAK2) did it give?
Answer: Its Ki is 0.0631 nM.

Question: What about the IC50 [1] of the same compound?
Answer: Its IC50 is 63.1 nM.
